Measurements as given in ChEMBL document CHEMBL5579843, “Multimechanism biological profiling of tetrahydro-β-carboline analogues as selective HDAC6 inhibitors for the treatment of Alzheimer's disease” (Eur J Med Chem, 2024).
pIC50: −log10 of the molar value. Active and inactive are the calls of the source. The calls are words filed in the database; no cut-off is given here.

What was measured:
Histone deacetylase 2 = Histone deacetylase 2 (Homo sapiens, UniProt Q92769); assay: Inhibition of HDAC2 (unknown origin)
SH-SY5Y [1] = assay: Neuroprotective activity against H2O2-induced oxidative damage in human SH-SY5Y cells assessed as increase in cell survival pretreated for 4 hrs followed by 200 uM H2O2 stimulation and measured after 24 hrs by MTT assay; assay type: functional, cell-based; settings: dose 1-10 µM, time 28.0 hrs
PC-12 [2] = assay: (§1) Neuroprotective activity against H2O2-induced oxidative damage in rat PC-12 cells assessed as inhibition of apoptosis by measuring live cells at 10 uM pretreated for 4 hrs followed by H2O2 stimulation and measured after 24 hrs by Annexin V-FITC/PI staining based flow cytometry analysis (reference value: 81.7%); assay type: functional; parameters: scale not given: the % may be the effect or the level left; settings: time 28 hrs
PC-12 [3] = assay: as §1, with “dead” for “live”, “5.10%)” for “81.7%)”; assay type: functional; parameters: scale not given: the % may be the effect or the level left; settings: time 28 hrs
SH-SY5Y [4] = assay: Neuroprotective activity against H2O2-induced oxidative damage in human SH-SY5Y cells assessed as cell survival rate at 10 uM pretreated for 4 hrs followed by 200 uM H2O2 stimulation and measured after 24 hrs by MTT assay relative to control; assay type: functional; settings: time 28 hrs
PC-12 [5] = assay: Neuroprotective activity against H2O2-induced oxidative damage in rat PC-12 cells assessed as reduction in intracellular LDH level by measuring residual activity at 5 uM pretreated for 4 hrs followed by H2O2 stimulation and measured after 24 hrs relative to control; assay type: functional; settings: time 28 hrs
SH-SY5Y [6] = assay: Neuroprotective activity against 6-OHDA-induced oxidative damage in human SH-SY5Y cells assessed as increase in cell survival at 1 to 10 uM pretreated for 4 hrs followed by 100 uM 6-OHDA stimulation and measured after 24 hrs by MTT assay; assay type: functional, cell-based; settings: dose 1-10 µM, time 28.0 hrs
PC-12 [7] = assay: Induction of neurite outgrowth in rat PC-12 cells assessed as increase in neuronal growth at 10 uM measured after 48 hrs by light microscopic analysis relative to control; assay type: functional
PC-12 [8] = assay: Neuroprotective activity against H2O2-induced oxidative damage in rat PC-12 cells assessed as increase in catalase protein expression at 10 uM pretreated for 4 hrs followed by H2O2 stimulation and measured after 24 hrs by Western blot analysis; assay type: functional, cell-based; settings: time 28.0 hrs
PC-12 [9] = assay: Neuroprotective activity against H2O2-induced oxidative damage in rat PC-12 cells assessed as inhibition of apoptosis by measuring decrease in PARP protein expression pretreated for 4 hrs followed by H2O2 stimulation and measured after 24 hrs by Western blot analysis; assay type: functional, cell-based; settings: dose 1-10 µM, time 28.0 hrs
Histone deacetylase 8 = target: T1, Histone deacetylase 8 (Homo sapiens, UniProt Q9BY41); assay: Inhibition of HDAC8 (unknown origin)
T1 sequence (Q9BY41 whole entry): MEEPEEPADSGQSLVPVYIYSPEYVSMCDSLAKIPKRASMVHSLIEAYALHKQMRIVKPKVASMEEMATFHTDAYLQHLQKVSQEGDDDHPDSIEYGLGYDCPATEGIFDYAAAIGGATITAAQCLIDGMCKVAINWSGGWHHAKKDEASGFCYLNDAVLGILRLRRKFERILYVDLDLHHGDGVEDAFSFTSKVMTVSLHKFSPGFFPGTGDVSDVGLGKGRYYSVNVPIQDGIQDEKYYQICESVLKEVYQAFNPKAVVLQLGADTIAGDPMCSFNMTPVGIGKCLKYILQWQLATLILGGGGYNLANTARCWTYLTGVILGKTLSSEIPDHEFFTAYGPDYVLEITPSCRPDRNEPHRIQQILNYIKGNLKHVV

PC-12 [10] = assay: Induction of neurite outgrowth in rat PC-12 cells assessed as increase in average neuronal length at 1 to 10 uM measured after 48 hrs by light microscopic analysis; assay type: functional, cell-based; settings: dose 1-10 µM
PC-12 [11] = assay: Neuroprotective activity against H2O2-induced oxidative damage in rat PC-12 cells assessed as reduction in intracellular LDH level by measuring residual activity at 1 uM pretreated for 4 hrs followed by H2O2 stimulation and measured after 24 hrs relative to control; assay type: functional; settings: time 28 hrs
PC-12 [12] = assay: Neuroprotective activity against H2O2-induced oxidative damage in rat PC-12 cells assessed as increase in Prx II protein expression measured after 24 hrs by Western blot analysis; assay type: functional, cell-based; settings: dose 1-10 µM
Danio rerio = species on record: Danio rerio; assay: Cognitive improvement ability in scopolamine induced zebrafish alzheimer disease model assessed as improvement in motor activity by measuring increase in total distance of swimming at 1 mg/L pretreated with scopolamine for 30 mins followed by compound addition for 3 mins by T-maze test; assay type: functional, organism-based
PC-12 [13] = assay: as §1, with “late apoptotic” for “live”, “10.9%)” for “81.7%)”; assay type: functional; parameters: scale not given: the % may be the effect or the level left; settings: time 28 hrs
[14] = Antioxidant activity assessed as ABTS radical scavenging activity measured after 30 mins by absorbance based analysis; assay type: functional
PC-12 [15] = assay: Neuroprotective activity against H2O2-induced oxidative damage in rat PC-12 cells assessed as reduction in intracellular LDH level by measuring residual activity at 10 uM pretreated for 4 hrs followed by H2O2 stimulation and measured after 24 hrs relative to control; assay type: functional; settings: time 28 hrs
PC-12 [16] = assay: Upregulation of beta-3 tubulin protein expression in rat PC-12 cells measured after 24 hrs by Western blot analysis; assay type: functional, cell-based; settings: dose 1-10 µM
[17] = target: T2, Polyamine deacetylase HDAC10 (Homo sapiens, UniProt Q969S8); assay: Inhibition of HDAC10 (unknown origin) by TR-FRET assay
T2 sequence (Q969S8 whole entry): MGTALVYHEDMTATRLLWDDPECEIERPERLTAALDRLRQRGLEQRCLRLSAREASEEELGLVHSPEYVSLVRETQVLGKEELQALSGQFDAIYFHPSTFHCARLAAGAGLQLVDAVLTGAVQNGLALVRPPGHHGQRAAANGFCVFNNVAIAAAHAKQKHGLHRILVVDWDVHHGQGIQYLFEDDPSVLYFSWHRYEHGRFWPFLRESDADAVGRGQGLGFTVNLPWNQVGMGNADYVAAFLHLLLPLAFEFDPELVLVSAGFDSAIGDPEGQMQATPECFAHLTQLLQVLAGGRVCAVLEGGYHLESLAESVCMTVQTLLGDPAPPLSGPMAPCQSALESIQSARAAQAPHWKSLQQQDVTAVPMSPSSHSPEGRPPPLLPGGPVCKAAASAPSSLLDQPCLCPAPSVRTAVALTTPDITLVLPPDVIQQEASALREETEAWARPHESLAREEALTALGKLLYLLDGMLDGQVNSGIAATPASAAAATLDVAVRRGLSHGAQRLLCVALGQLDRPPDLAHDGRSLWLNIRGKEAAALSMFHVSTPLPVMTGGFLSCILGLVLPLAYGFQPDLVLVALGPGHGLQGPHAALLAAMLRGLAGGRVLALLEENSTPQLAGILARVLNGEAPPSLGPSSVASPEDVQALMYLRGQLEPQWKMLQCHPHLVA

PC-12 [18] = assay: Induction of neurite outgrowth in rat PC-12 cells assessed as increase in neuronal protrusions at 10 uM measured after 48 hrs by light microscopic analysis; assay type: functional, cell-based
PC-12 [19] = assay: Neuroprotective activity against H2O2-induced oxidative damage in rat PC-12 cells assessed as cell survival rate at 10 uM pretreated for 4 hrs followed by 800 uM H2O2 stimulation and measured after 24 hrs by MTT assay relative to control; assay type: functional; settings: time 28 hrs, read-out: Survival
PC-12 [20] = assay: Inhibition of HDAC6 in rat PC-12 cells assessed as increase in acetylated alpha-tubulin level incubated for 6 hrs by Western blot analysis; assay type: cell-based; settings: dose 0.1-10 µM

Chain of Histone deacetylase 2 (Q92769 whole entry): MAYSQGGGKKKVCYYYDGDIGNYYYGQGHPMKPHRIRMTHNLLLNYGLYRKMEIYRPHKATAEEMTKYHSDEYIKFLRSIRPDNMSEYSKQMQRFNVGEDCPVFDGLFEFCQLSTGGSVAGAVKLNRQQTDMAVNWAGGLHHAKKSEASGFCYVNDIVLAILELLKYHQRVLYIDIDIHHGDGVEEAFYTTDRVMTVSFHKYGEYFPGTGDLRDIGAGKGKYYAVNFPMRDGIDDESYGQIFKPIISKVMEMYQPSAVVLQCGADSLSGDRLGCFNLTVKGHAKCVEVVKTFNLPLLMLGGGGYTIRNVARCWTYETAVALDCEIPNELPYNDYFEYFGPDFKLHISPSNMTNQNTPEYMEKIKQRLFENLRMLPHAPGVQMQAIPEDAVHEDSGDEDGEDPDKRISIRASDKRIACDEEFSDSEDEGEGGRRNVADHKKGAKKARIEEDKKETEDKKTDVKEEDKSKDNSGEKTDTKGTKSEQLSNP

O=C(NO)c1ccc(CN2CCc3c(n(CC4CC4)c4ccc(F)cc34)C2)cc1
pIC50 (Histone deacetylase 2): 4.71
Activity (SH-SY5Y [1]): Dose-Dependent Effect
Activity (PC-12 [2]): 91.5%
Activity (PC-12 [3]): 1.12%
Activity (SH-SY5Y [4]): 78%
Activity (PC-12 [5]): 50.2%
Activity (SH-SY5Y [6]): Active
Activity (PC-12 [7]): 15.3%
Activity (PC-12 [8]): Active
Activity (PC-12 [9]): Dose-Dependent Effect
pIC50 (Histone deacetylase 8): 5.71
Activity (PC-12 [10]): Active
Activity (PC-12 [11]): 74.3%
Activity (PC-12 [12]): Dose-Dependent Effect
Activity (Danio rerio): Active
Activity (PC-12 [13]): 3.17%
pIC50 [14]: 4.98
Activity (PC-12 [15]): 35.9%
Activity (PC-12 [16]): Dose-Dependent Effect
pIC50 [17]: 6.28
Activity (PC-12 [18]): Active
viability at 10 µM (PC-12 [19]): 89.7%
inhibition (PC-12 [20]): Dose-Dependent Effect
